In publication PMC9348551, “An amelogenin-based peptide hydrogel promoted the odontogenic differentiation of human dental pulp cells” (Regenerative Biomaterials, 2022):
Square brackets hold non-standard residues; d marks the D form. Ends that are not written are not given here. Peptide text beside a SMILES is read from it. * marks the point of attachment. Acetyl(2-naphthyl) = O=C(Cc1ccc2ccccc2c1)*

Experiments:
proteinase K = proteinase K (Parengyodontium album, UniProt P06873); assay: Proteinase K stability (compound remaining); type: in vitro ADME; settings: initial concentration 1.0 mM, 0.1 mg/ml proteinase K
Chain of proteinase K (P06873 106-384, species assumed): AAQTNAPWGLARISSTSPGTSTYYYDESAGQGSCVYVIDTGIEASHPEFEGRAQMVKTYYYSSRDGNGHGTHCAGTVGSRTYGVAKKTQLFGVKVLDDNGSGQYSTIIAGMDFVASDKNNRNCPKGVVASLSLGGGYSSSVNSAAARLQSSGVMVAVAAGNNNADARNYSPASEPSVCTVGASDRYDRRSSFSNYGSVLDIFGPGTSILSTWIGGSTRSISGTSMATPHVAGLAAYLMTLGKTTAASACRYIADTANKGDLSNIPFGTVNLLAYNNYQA
Procedure: (§1) Both Nap-GFFY-G-KWYQNMIR (Comp. 1) and Nap-G^DF^DF^DY-G-KWYQNMIR (Comp. 2) could form hydrogels by heating and cooling, namely L-gel and D-gel (Fig. 1A–C). The ultrastructures of the L-gel and D-gel were both nanofibers (Fig. 1D and E). The mechanical properties of the L-gel and D-gel remained relatively constant (Fig. 1F and G). […] The CAC values of the AMG-P8, L-gel and D-gel were 354.91, 84.25 and 86.62 μM, respectively (Fig. 1I and J). […] That was the result of an initial concentration of 1.0 mM AMG-P8 incubated with 0.1 mg/ml of proteinase K for 24 h, whereas the L-gel and D-gel still retained 62.21% and 78.06% of the compound, respectively, after 24 h (Fig. 1K).
(§2) Figure 1. Chemical structures of (A) AMG-P8 (KWYQNMIR); (B) Comp.1 (Nap-GFFYGKWYQNMIR) and (C) Comp.2 (Nap-G^DF^DF^DYGKWYQNMIR). TEM and optical images of (D) L-gel and (E) D-gel. Dynamic frequency and strain sweep measurements of L-gel and D-gel (F, G). (H) Circular dichroism spectra of L-gel and D-gel. Determination of CAC values of L-gel (I) and D-gel (J). (K) Compound remaining of the AMG-P8, L-gel and D-gel for an initial concentration of 1.0 mM incubated with 0.1 mg/ml of proteinase K for 24 h. TEXT PRINTED IN THE PICTURE: (I) L- gel: CAC=84.25 μM | (J) D- gel: CAC=86.62 μM DOUBTS OF THE COPYIST ABOUT THIS PICTURE: L- gel, CAC: small print, 84.25 could be 84.26 or 64.25 / D- gel, CAC: small print, 86.62 could be 88.62 or 86.82

[1] = Solubility of the peptide; type: physicochemical; settings: in words
[2] = Proteinase K stability (compound remaining); type: in vitro ADME; settings: Tritirachium album (source organism of proteinase K); initial concentration 1.0 mM, 0.1 mg/ml proteinase K, 24 h; read-out: compound remaining after 24 h
Procedure: as §1, §2

[3] = test system: human dental pulp cells (HDPCs); type: cell-based
Procedure: The HDPCs (1 × 10^5 cells/well) in the six well plates were treated with basal medium, AMG-P8, L-gel, D-gel, EMPs for 21 days. After fixed in the 4% paraformaldehyde for 15 min, the mineralized nodules were stained with 1% Alizarin Red (Solarbio, Beijing, China) for 10 min and washed in double-distilled water to eliminate floating colors. Images were captured with a Ti-S microscope (Nikon, Japan). For quantitative analysis of calcified nodules, 10% cetylpyridinium chloride (CPC; Sigma, USA) was used to dissolve Alizarin red. One milliliter of 10% CPC per well was added and shook for 30 min. The absorbance value was measured at 560 nm using a multifunctional microplate reader (Tecan Ltd., Männedorf, Switzerland).

[4] = test system: human dental pulp cells (HDPCs); assay: Western blot of DSPP, DMP-1 and ALP in HDPCs; type: cell-based; settings: D-gel and U0126 for 7 and 14 days, P < 0.05, in words
Procedure: The healthy premolars and third molars extracted for orthodontic or other reasons were collected from patients (14–22 years old) visited Tianjin Stomatological Hospital. This study had been approved by the Ethics Committee of Tianjin Stomatological Hospital (Approval number: 2018012). The informed consent was obtained from each patient. The dental pulp tissue was dissected within 4 h after tooth extraction, minced into 1 mm^3 pieces with sterile scissors and transferred to a cell culture flask containing alpha-modified Eagle’s medium (α-MEM, Gibco, California, USA) supplemented with 10% fetal bovine serum (FBS, Gibco, New York, NY, USA), 100 U/ml penicillin and 100 μg/ml streptomycin (PS, Sigma, California, USA). The cells were cultured in a 5% CO2 incubator at 37°C. The HDPCs at 3–4 passage were used in this study.
The HDPCs (2 × 10^5) were treated under different conditions for different time points. The EMPs (1 µM) were also added to the HDPCs as an extra control group. Then the cells were harvested and lysed in 200 µL lysis buffer (Beyotime, Shanghai, China) and centrifuged (12 000 rpm for 10 min, at 4°C). The protein concentration was evaluated with a BCA kit (Solarbio, Beijing, China). The protein was mixed with 5× loading buffer and heated at 95°C for 5 min, separated by precast PAGE gel (Beyotime, Shanghai, China) and transferred to polyvinylidene fluoride membranes. […]

[5] = test system: MAPK-ERK1/2 pathways in HDPCs; assay: Western blot of phospho-ERK1/2 in HDPCs; type: cell-based, human; settings: 10 µM inhibitor pretreatment 1 h then D-gel 1 h, P < 0.05, in words
Procedure: The HDPCs (2 × 10^5) were treated under different conditions for different time points. The EMPs (1 µM) were also added to the HDPCs as an extra control group. Then the cells were harvested and lysed in 200 µL lysis buffer (Beyotime, Shanghai, China) and centrifuged (12 000 rpm for 10 min, at 4°C). The protein concentration was evaluated with a BCA kit (Solarbio, Beijing, China). The protein was mixed with 5× loading buffer and heated at 95°C for 5 min, separated by precast PAGE gel (Beyotime, Shanghai, China) and transferred to polyvinylidene fluoride membranes. After blocked at room temperature for 15 min, then incubated with the primary antibody (DSPP, DMP-1, Smad2/3, c jun, p-c jun, c fos, p-c fos, c jun B) (Santa Cruz, California, USA), [p-ERK1/2, ERK1/2, alkaline phosphatase (ALP), p-Smad2/3, GAPDH] (Beyotime, Shanghai, China). Then, the membranes were incubated with the goat anti-rabbit IgG-HRP secondary antibody or goat anti-mouse IgG-HRP secondary antibody for 1 h, respectively. Then, an ultrasensitive chemiluminescence kit (Beyotime, Shanghai, China) was used to detect the protein bands. A chemiluminescence imager (Bio-Rad, California, USA) was used to scan the protein bands. The Image Lab software was used to analyze the relative protein expression levels. […]

KWYQNMIR [AMG-P8]
time within which the peptide was hydrolyzed (proteinase K): ≤ 30 min
solubility [1]: good solubility

CC[C@H](C)[C@H](NC(=O)[C@H](CCSC)NC(=O)[C@H](CC(N)=O)NC(=O)[C@H](CCC(N)=O)NC(=O)[C@H](Cc1ccc(O)cc1)NC(=O)[C@H](Cc1c[nH]c2ccccc12)NC(=O)[C@H](CCCCN)NC(=O)CNC(=O)[C@@H](Cc1ccc(O)cc1)NC(=O)[C@@H](Cc1ccccc1)NC(=O)[C@@H](Cc1ccccc1)NC(=O)CNC(=O)Cc1ccc2ccccc2c1)C(=O)N[C@@H](CCCNC(=N)N)C(=O)O [D-gel] ({Acetyl(2-naphthyl)}-G[dF][dF][dY]GKWYQNMIR-OH)
remaining at 24 h, 1 mM [2]: 78.1%
Alizarin red OD value as percent of the EMPs group [3]: about 80%

N#CC(=C(/N)Sc1ccccc1N)/C(C#N)=C(/N)Sc1ccccc1N [U0126]
effect on D-gel-induced expression of DSPP and ALP [4]: suppressed
effect on D-gel-induced phospho-ERK1/2 upregulation [5]: specifically blocked

CC[C@H](C)[C@H](NC(=O)[C@H](CCSC)NC(=O)[C@H](CC(N)=O)NC(=O)[C@H](CCC(N)=O)NC(=O)[C@H](Cc1ccc(O)cc1)NC(=O)[C@H](Cc1c[nH]c2ccccc12)NC(=O)[C@H](CCCCN)NC(=O)CNC(=O)[C@H](Cc1ccc(O)cc1)NC(=O)[C@H](Cc1ccccc1)NC(=O)[C@H](Cc1ccccc1)NC(=O)CNC(=O)Cc1ccc2ccccc2c1)C(=O)N[C@@H](CCCNC(=N)N)C(=O)O [L-gel] ({Acetyl(2-naphthyl)}-GFFYGKWYQNMIR-OH)
remaining at 24 h, 1 mM [2]: 62.2%
